Assay results from US12459951B2, “Compounds that interact with RAS superfamily proteins for treatment of cancers, inflammatory diseases, rasopathies, and fibrotic disease” (SHY Therapeutics, LLC, priority 2022, dated 2025).

Legend:
[1] = test system: Smad2/Smad3 phosphorylation; assay: Phospho-Smad2/3 Inhibition Assay (western blot), Panc-1; type: cell-based, human; conditions: at 10 μM, Panc-1 pancreatic cancer cell line; starred symbols = activation
Outline: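 Panc-1 cells (KRas G12D), starved overnight in 0.5% FBS, treated 3 h at 37° C with compound at 10 μM final (0.3% DMSO) or serial dilutions for IC50, then stimulated with 10 ng/ml TGF-b1 for 1 h. Phospho-Smad2 (Ser465/467) and phospho-Smad3 (Ser423/425) detected by western blot.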

Erk1/2 phosphorylation = assay: Erk1/2 Phosphorylation Assay (western blot), Panc-1; type: cell-based, human; conditions: at 10 μM, * = activation
Outline: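 KRas G12D Panc-1 cells were treated 6 h at 37° C with compound at 10 μM or serial dilutions for IC50 (0.3% DMSO). In method 1, cells were serum-starved overnight (0.5% FBS) and then given 1.5 ng/ml EGF for 15 min. In method 2, cells stayed in 10% FBS without stimulation. Lysate phospho-Erk1/2 (Thr202/Tyr204) was read by western blot.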

| SMILES | % inh of Smad2/3 phosphorylation in Panc-1 [1] | % inh of Erk1/2 phosphorylation in Panc-1 (Erk1/2 phosphorylation) |
| --- | --- | --- |
| COCCO[C@H]1C[C@H](Nc2nc(-c3nccn3C)nn3cc(-c4ccn(C)n4)c(C)c23)C1 [Compound 130, N-((1r,3r)-3-(2-Methoxyethoxy)cyclobutyl)-5-methyl-2-(1-methyl-1H-imidazol-2-yl)-6-(1-methyl-1H-pyrazol-3-yl)pyrrolo[2,1-f][1,2,4]triazin-4-amine] | C (C = 46-75% inhibition) | B* (26-49% activation) |
| CO[C@H]1C[C@@H](Nc2nc(-c3nccn3C)nn3cc(-c4ccn(C)n4)c(C)c23)C1 [Compound 131, N-((1s,3s)-3-Methoxycyclobutyl)-5-methyl-2-(1-methyl-1H-imidazol-2-yl)-6-(1-methyl-1H-pyrazol-3-yl)pyrrolo[2,1-f][1,2,4]triazin-4-amine] | 0 (0 = 0% inhibition) | A* (1-25% activation) |
| Cc1c(-c2ccn(C3CC3)n2)cn2nc(-c3nccn3C)nc(O)c12 [Compound 134, 6-(1-Cyclopropyl-1H-pyrazol-3-yl)-5-methyl-2-(1-methyl-1H-imidazol-2-yl)pyrrolo[2,1-f][1,2,4]triazin-4-ol] | B (B = 26-45% inhibition) | B (26-49% inhibition) |
| COc1cc(Nc2nc(-c3nccn3C)nn3cc(-c4ccn(C5CC5)n4)c(C)c23)ncn1 [Compound 135, 6-(1-Cyclopropyl-1H-pyrazol-3-yl)-N-(6-methoxypyrimidin-4-yl)-5-methyl-2-(1-methyl-1H-imidazol-2-yl)pyrrolo[2,1-f][1,2,4]triazin-4-amine] | A* (A* = 1-25% activation) | D* (85-100% activation) |
| Cc1c(-c2ccn(C)n2)cn2nc(-c3nccn3C)nc(Nc3cc(OC(C)C)ccn3)c12 [Compound 136, N-(4-Isopropoxypyridin-2-yl)-5-methyl-2-(1-methyl-1H-imidazol-2-yl)-6-(1-methyl-1H-pyrazol-3-yl)pyrrolo[2,1-f][1,2,4]triazin-4-amine] | A (A = 1-25% inhibition) | D* (85-100% activation) |
| COc1ccnc(Nc2nc(-c3nccn3C)nn3cc(-c4ccn(C5CC5)n4)c(C)c23)c1 [Compound 137, 6-(1-Cyclopropyl-1H-pyrazol-3-yl)-N-(4-methoxypyridin-2-yl)-5-methyl-2-(1-methyl-1H-imidazol-2-yl)pyrrolo[2,1-f][1,2,4]triazin-4-amine] | C (C = 46-75% inhibition) | B* (26-49% activation) |
| Cc1c(-c2ccn(C3CC3)n2)cn2nc(-c3nccn3C)nc(Nc3cc(OC(F)(F)F)ccn3)c12 [Compound 138, 6-(1-Cyclopropyl-1H-pyrazol-3-yl)-5-methyl-2-(1-methyl-1H-imidazol-2-yl)-N-(4-(trifluoromethoxy)pyridin-2-yl)pyrrolo[2,1-f][1,2,4]triazin-4-amine] | A* (A* = 1-25% activation) | D* (85-100% activation) |
| Cc1c(-c2ccn(C3CC3)n2)cn2nc(-c3nccn3C)nc(Nc3cc(OC(F)F)ccn3)c12 [Compound 139, 6-(1-Cyclopropyl-1H-pyrazol-3-yl)-N-(4-(difluoromethoxy)pyridin-2-yl)-5-methyl-2-(1-methyl-1H-imidazol-2-yl)pyrrolo[2,1-f][1,2,4]triazin-4-amine] | A* (A* = 1-25% activation) | D* (85-100% activation) |
| Cc1c(-c2ccn(C3CC3)n2)cn2nc(-c3nccn3C)nc(Nc3cc(OCC(F)(F)F)ccn3)c12 [Compound 140, 6-(1-Cyclopropyl-1H-pyrazol-3-yl)-5-methyl-2-(1-methyl-1H-imidazol-2-yl)-N-(4-(2,2,2-trifluoroethoxy)pyridin-2-yl)pyrrolo[2,1-f][1,2,4]triazin-4-amine] | A (A = 1-25% inhibition) | D* (85-100% activation) |
| CCOc1ccnc(Nc2nc(-c3nccn3C)nn3cc(-c4ccn(C5CC5)n4)c(C)c23)c1 [Compound 141, 6-(1-Cyclopropyl-1H-pyrazol-3-yl)-N-(4-ethoxypyridin-2-yl)-5-methyl-2-(1-methyl-1H-imidazol-2-yl)pyrrolo[2,1-f][1,2,4]triazin-4-amine] | D (D = 76-100% inhibition) | B (26-49% inhibition) |
| Cc1c(-c2ccn(C3CC3)n2)cn2nc(-c3nccn3C)nc(Nc3cc(OC4CC4)ccn3)c12 [Compound 142, N-(4-Cyclopropoxypyridin-2-yl)-6-(1-cyclopropyl-1H-pyrazol-3-yl)-5-methyl-2-(1-methyl-1H-imidazol-2-yl)pyrrolo[2,1-f][1,2,4]triazin-4-amine] | C (C = 46-75% inhibition) | C (50-84% inhibition) |
| Cc1c(-c2ccn(C3CC3)n2)cn2nc(-c3nccn3C)nc(Nc3ccccn3)c12 [Compound 143, 6-(1-Cyclopropyl-1H-pyrazol-3-yl)-5-methyl-2-(1-methyl-1H-imidazol-2-yl)-N-(pyridin-2-yl)pyrrolo[2,1-f][1,2,4]triazin-4-amine] | A (A = 1-25% inhibition) | D* (85-100% activation) |
| Cc1ccnc(Nc2nc(-c3nccn3C)nn3cc(-c4ccn(C5CC5)n4)c(C)c23)c1 [Compound 144, 6-(1-Cyclopropyl-1H-pyrazol-3-yl)-5-methyl-2-(1-methyl-1H-imidazol-2-yl)-N-(4-methylpyridin-2-yl)pyrrolo[2,1-f][1,2,4]triazin-4-amine] | D (D = 76-100% inhibition) | A (1-25% inhibition) |
| Cc1c(-c2ccn(C3CC3)n2)cn2nc(-c3nccn3C)nc(Nc3cc(N(C)C)ccn3)c12 [Compound 145, N^2-(6-(1-Cyclopropyl-1H-pyrazol-3-yl)-5-methyl-2-(1-methyl-1H-imidazol-2-yl)pyrrolo[2,1-f][1,2,4]triazin-4-yl)-N^4,N^4-dimethylpyridine-2,4-diamine] | B* (B* = 26-45% activation) | C* (46-84% activation) |
| Cc1c(-c2ccn(C3CC3)n2)cn2nc(-c3nccn3C)nc(Nc3cc(OCCO)ccn3)c12 [Compound 146, 2-((2-((6-(1-Cyclopropyl-1H-pyrazol-3-yl)-5-methyl-2-(1-methyl-1H-imidazol-2-yl)pyrrolo[2,1-f][1,2,4]triazin-4-yl)amino)pyridin-4-yl)oxy)ethan-1-ol] | C (C = 46-75% inhibition) | D* (85-100% activation) |
| Cc1c(-c2ccn(C3CC3)n2)cn2nc(-c3nccn3C)nc(Nc3cc(OCCN(C)C)ccn3)c12 [Compound 147, 6-(1-Cyclopropyl-1H-pyrazol-3-yl)-N-(4-(2-(dimethylamino)ethoxy)pyridin-2-yl)-5-methyl-2-(1-methyl-1H-imidazol-2-yl)pyrrolo[2,1-f][1,2,4]triazin-4-amine] | C (C = 46-75% inhibition) | A* (1-25% activation) |
